The values that follow come from patent US20130316016A1, “ANTIBACTERIAL OR ANTI-ACNE FORMULATIONS CONTAINING USNIC ACID OR AN USNATE AND A METAL SALT” (EVOCUTIS PLC, priority 2010, published 2013).

Marks after values point to notes of the source that are not given here. Some results are limits rather than exact numbers.

The test deals with Propionibacterium acnes NCTC 737. The experiment in a line: fixed ratio combination MIC/MBC assay. The test is classed as cell-based. Particulars: for MBC / MIC: test compound alone; for MBC: P. acnes NCTC 737; for MIC: P. acnes NCTC 737, pH 6.0, anaerobic, 37° C., 72 hours; for active against P. acnes NCTC 737: compound alone, statement in words. How it is done: The test organism used was Propionibacterium acnes NCTC 737. This is a propionibacterial strain and is the type strain of the […]; it is fully susceptible to antibiotics. The propionibacteria are clinically significant due to their involvement in acne. They are also opportunistic pathogens in compromised hosts. Activity observed against these micro-organisms is expected to be a good predictor of activity against acne. The propionibacteria were cultured and maintained on Wilkins-Chalgren Anaerobe Medium (agar and broth) at pH 6.0; all cultures were incubated anaerobically at 37° C. for 72 hours. The following “fixed ratio combination MIC/MBC assay” was carried out to assess antimicrobial activity against the test organism. The method used a sterile 96-well microtitre plate, capable of holding about 200 μl of liquid per well. […] The culture medium was as described above. The wells were inoculated with a liquid suspension of freshly grown micro-organism and incubated under the conditions described above. After incubation, the microtitre plate was examined visually (with the aid of a light box) for cloudiness in each well, which would indicate microbial growth. The minimum inhibitory concentration (MIC) value was recorded as the lowest concentration of test compound alone, or the lowest concentration of the mixture of the two test compounds, required to inhibit microbial growth, i.e. where the liquid in the well remained clear. The assays were conducted in triplicate and included both negative (culture medium with no micro-organisms) and positive (culture medium plus diluting solvent(s) plus micro-organism) controls. […] These samples were then individually sub-cultured on antibiotic-free agar medium, under the incubation conditions described above. Following incubation they were examined visually for microbial growth. […] A fractional inhibitory concentration index (FICI) or fractional bactericidal concentration index (FBCI) was then calculated for each compound in the relevant mixture, and these two indices were added together to give an overall FICI or FBCI to indicate the mode of interaction. Thus for each mixture (of two compounds A and B) which was tested, the FIC for compound A (FICA)=MIC for (A+B)/MIC for A alone. Similarly the FIC for compound B (FICB)=MIC for (A+B)/MIC for B alone. The overall […]. FBCs and FBCIs were calculated in the same manner, using recorded MBC values.

For the molecule copper (II) D-gluconate, the MBC is recorded as >41.1* μg/ml and the minimum inhibitory concentration (MIC) was >41.1* μg/ml.

`CC(=O)[O-].CC(=O)[O-].[Cu+2]` [Copper (II) acetate, copper (II) acetate]: the minimal bactericidal concentration (MBC) was >16.8* μg/ml and the MIC came to 16.8 µg/mL.

For the molecule `O=S(=O)([O-])[O-].[Cu+2]` [Copper (II) sulphate, copper (II) sulphate], the “active against P. acnes NCTC 737” value is on record as “active”, the MBC is listed as >14.5* μg/ml and the MIC is >14.5* μg/ml.

On to `[Cl][Cu][Cl]` [Copper (II) chloride, copper (II) chloride], for which the minimum bactericidal concentration (MBC) is >22.25* μg/ml and the minimum inhibitory concentration (MIC) worked out at 12.2 µg/mL.

On to `CC(=O)[O-].[Cu+]` [Copper (I) acetate, copper (I) acetate], for which the minimal bactericidal concentration (MBC) stood at 22.2 µg/mL and the MIC stood at 11.1 µg/mL.

For the molecule `[Cl][Bi]([Cl])[Cl]` [Bismuth (III) chloride, bismuth (III) chloride], the “active against P. acnes NCTC 737” value was “active”, the minimum bactericidal concentration (MBC) is recorded as >19* μg/ml and the MIC was found to be 19 µg/mL.

As to `CC(=O)c1c(O)c(C)c(O)c2c1OC1=CC(=O)C(C(C)=O)C(=O)C12C` (stereo not drawn) [Usnic acid, 2,6-diacetyl-7,9-dihydroxy-8,9b-dimethyl-1,3(2H,9bh)-dibenzofurandione], the “active against P. acnes NCTC 737” value is listed as “active”.
